Values joined by “and” are separate entries in the source; they are usually repeats but may differ in a detail not shown here. Equal values may be shown once. Marks after values point to notes of the source that are not given here.
What was measured:
[1] = molecular target: human CD47 on human red blood cells (human) (UniProt Q08722); assay: cell-based or functional assay
THP-1 macrophages [2] = assay: SHP-1 inhibitor effect on phagocytosis of IgG-opsonized particles by THP-1 macrophages; assay type: cell-based, human
Protocol: FIG. 16, comprising FIG. 16A-16D, illustrates CD47-SIRPα signaling pathway from SHP-1 to myosin. Phagocytosis of IgG-opsonized particles with or without human CD47 of 100 nm particles (FIG. 16A) and 1.1 μm particles (FIG. 16B) were treated with an SHP-1 inhibitor (NSC-87877) at 62.5 nM and its effects were determined by the ratio of ingested particles per THP-1 phagocyte. The number of particles ingested was shown based on 200 phagocytes counted (n≧3, ±SD). The inset depicts the concentration dependence of NSC-87877 effect on particle uptake. Treatment of blebbistatin in THP-1 macrophages during phagocytosis of IgG-opsonized 100 nm particles (FIG. 16C) and 1.1 μm particles (FIG. 16D) depict inhibition of phagocytosis.
For phagocytosis assays with CD47 attached particles at 100 nm to 1.1 μm diameter were IgG-opsonized. THP-1 macrophage, PMA activated were treated with 0-0.5 μM NSC-87877 an SHP-1 Inhibitor (gift from Frank L. Conlon) 5 minutes prior to the addition of IgG-opsonized particles. Phagocytosis assay occurred at 37° C. for 45 minutes and then fixed for 5 minutes with 5% formaldehyde as described for the phagocytosis assay (Fisher Scientific).
To confirm the correlation between CD47 affect on inhibiting phagocytosis of both nano and micro sized particles, blocked SHP-1 should result in nullifying the CD47 signal. In order to specifically block SHP-1, an inhibitor NSC-87877 was used with a reported high specificity to SHP-1 (Chen et al., 2006, Mol. Pharmacol. 70(2):562-70; Langdon et al., 2007, Development 134(22):4119-30). […] The uptake of these particles was measured as the number of particles ingested per phagocyte.

SHP-1 = SHP-1 (Homo sapiens, UniProt P29350); details: Chen et al., 2006; read-out: reported IC50 for SHP-1; cited from earlier work
Sequence of SHP-1 (P29350 whole entry): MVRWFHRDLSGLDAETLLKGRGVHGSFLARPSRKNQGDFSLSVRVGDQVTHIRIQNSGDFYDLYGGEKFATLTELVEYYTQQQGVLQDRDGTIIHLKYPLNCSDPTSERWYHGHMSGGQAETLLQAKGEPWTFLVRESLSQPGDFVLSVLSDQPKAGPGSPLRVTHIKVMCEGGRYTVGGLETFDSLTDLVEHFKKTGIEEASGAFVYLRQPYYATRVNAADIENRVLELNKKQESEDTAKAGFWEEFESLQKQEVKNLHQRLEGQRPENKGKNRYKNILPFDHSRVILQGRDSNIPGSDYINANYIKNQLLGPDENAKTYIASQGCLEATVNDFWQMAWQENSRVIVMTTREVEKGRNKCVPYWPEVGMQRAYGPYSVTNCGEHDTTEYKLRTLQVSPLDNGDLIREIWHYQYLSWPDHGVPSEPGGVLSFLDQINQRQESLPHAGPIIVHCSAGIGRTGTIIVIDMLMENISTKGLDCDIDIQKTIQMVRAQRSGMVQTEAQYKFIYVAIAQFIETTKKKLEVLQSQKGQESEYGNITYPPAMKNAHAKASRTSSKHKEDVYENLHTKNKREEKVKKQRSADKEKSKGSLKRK

THP-1 macrophages [3] = assay: Phagocytosis of IgG-opsonized streptavidin beads with or without hCD47 by THP-1 macrophages; assay type: cell-based, human; details: for Ki (minimum hCD47 density to inhibit uptake): IgG-opsonized
Protocol: (§1) The extracellular immunoglobulin-like domains of human CD47 (hCD47) was recombinantly expressed with a spacer domain (Brown et al., 1994, Protein Eng. 7:515-21; Brown et al., 1998, J. Exp. Med. 188:2083-90) plus a C-terminal biotinylation site. […] The beads were opsonized by pretreatment with anti-streptavidin to again induce FcR-mediated phagocytosis (for 45 minutes at 37° C.), and non-engulfed beads were detected with a flourescein anti-Fc against the IgG-opsonin. The number of adherent IgG-opsonized beads per phagocyte was independent of hCD47 (not shown).
For phagocytosis assays, macrophages were plated in 4 cm^2, or 2 cm^2 Lab-Tek II Chambered Coverglass (Nalge Nunc International, Naperville, Ill.) at 1.5×10^5/cm^2. Streptavidin polystyrene beads of different radius: 3.5 μm, 1.1 μm, 160 nm (Spherotech) and 100 nm (Ademtech) were added to macrophages at a ratio of 2:1, 20:1, 277:1, and 2206:1 respectively and incubate at 37° C. for 45 min. […] Non-phagocytosed beads were washed with PBS. Cells were fixed with 5% formaldehyde (Fisher Scientific) for 5 minutes, followed by immediate replacement with PBS. For differentiation of non-internalized beads, beads were labeled with a primary antibody, rabbit anti-streptavidin (Sigma) at 1:1000 in PBS for 20 min at 25° C. A second antibody, anti-rabbit R-PE (Sigma) was added at 1:1000 in PBS to the cells and incubated for an additional 20 minutes at 25° C. Cells were then washed with PBS/0.4% BSA and then quantified by light and fluorescent microscopy. At least 200 cells were scored per well and experiments were repeated at least three times.
For stimulated phagocytosis assays, beads with or without CD47 were incubated with rabbit anti-streptavidin as the IgG opsonin. Beads were opsonized at a concentration 1:1000 for 30 min at 25° C. Opsonized beads were washed 2× and resuspended in 50 μl of PBS/0.4% BSA. Phagocytes were washed with PBS and uningested beads were labeled as described above.
For cytoskeletal involvement at the phagocytic synapse, streptavidin beads opsonized with rabbit anti-streptavidin FITC. Opsonized beads of different sizes were added to THP-1 cells, PMA treated and immediately placed at 4° C. for 10 min to synchronize phagocytosis. […] For studies involving blebbistatin (EMD Biosciences), macrophages were treated for 10 min at 4° C. prior to temperature increase to 37° C. or for 45 min and 37° C. Macrophages treated with DMSO were used to verify no solvent effects.
Beads were opsonized at saturating densities of IgG, and over a 20-fold range of CD47 densities, the number of internalized beads per THP-1 was measured. […] The normal level of CD47 density found on human RBC (Subramanian et al., 2006, Blood 107(6):2548-2556) was indicated by the vertical bars and humans with certain Rhnull phenotypes with reduced levels of CD47 (Mouro-Chanteloup et al., 2003, Blood 101 (1):338-344; Arndt et al., 2004, Br. J. Haematol. 125(3):412-4) was indicated by the vertical bars. The minimum number of CD47 inhibition appears to be consistent across a 30-fold particle size range as depicted by the vertical bars.

[4] = tested on: human peripheral blood monocytes; assay: Phagocytosis of hCD47 beads by human peripheral blood monocytes; assay type: cell-based; details: FIG. 6D
Protocol: FIG. 6, comprising […], illustrates that human-CD47 is sufficient to inhibit phagocytosis. FIG. 6A depicts streptavidin beads coated with both anti-streptavidin IgG as the opsonin and biotinylated human-CD47. Phagocytosis of beads by THP-1 cells was assessed in DIC and fluorescence with non-ingested beads visible with rabbit anti-streptavidin plus a second, goat anti-rabbit antibody. The scale bars are 10 μm. […] Inset bar graph compares to inhibited phagocytosis of uncoated beads after 10 min pretreatment of THP-1 cells with blebbistatin (50 μM). FIG. 6C depicts inhibition of phagocytosis depends on density of human-CD47 on beads. FIG. 6D depicts a bar graph comparing hCD47 inhibition of phagocytosis in peripheral blood monocytes.
as §1, with “shown). […]” for “shown).”

THP-1 macrophages [5] = assay: Phagocytosis of IgG-opsonized streptavidin beads with or without hCD47 by THP-1 macrophages; assay type: cell-based, human; details: particle radius 3.4 μm
[6] = 100 nm particles, NSC-87877 62.5 nM

Sequence of human CD47 on human red blood cells (human) (Q08722 other isoform, or with tags, fused parts or gaps limits assumed): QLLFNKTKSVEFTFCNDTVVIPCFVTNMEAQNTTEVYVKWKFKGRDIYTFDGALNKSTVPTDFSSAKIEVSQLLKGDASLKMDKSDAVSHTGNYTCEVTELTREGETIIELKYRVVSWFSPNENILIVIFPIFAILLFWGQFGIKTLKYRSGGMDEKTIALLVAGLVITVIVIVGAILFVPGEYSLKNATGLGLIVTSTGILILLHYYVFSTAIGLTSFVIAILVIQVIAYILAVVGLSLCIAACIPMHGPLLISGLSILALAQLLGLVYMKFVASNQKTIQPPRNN

Compound: anti-CD47 F(ab')2 generated from monoclonal antibody B6H12
- phagocytosis of IgG-opsonized human RBCs by human phagocytes after CD47 blocking [1]: 2 fold and 3 fold

Compound: O=S(=O)(O)c1ccc2cc(N=Nc3cc(S(=O)(=O)O)c4cccnc4c3O)ccc2c1 [NSC-87877]
- particles ingested per phagocyte, beads without hCD47 (THP-1 macrophages [2]; [6]): no statistical difference
- particles ingested per phagocyte, hCD47 particles (THP-1 macrophages [2]; [6]): an increase of ingested particles
- uptake of 1.1 μm particles coated with hCD47 (THP-1 macrophages [2]; NSC-87877, FIG. 16B): increase in uptake comparable to uncoated IgG-opsonized particles
- IC50 (SHP-1): 500 nM

Compound: hCD47: extracellular immunoglobulin-like domains of human CD47 recombinantly expressed with a spacer domain plus C-terminal biotinylation site, attached to streptavidin-coated beads
- effective Ki of phagocytosis inhibition (THP-1 macrophages [3]; all particle sizes tested, micro to nano-meter beads (100 nm to 3.5 μm)): approximately 20 molecules/μm^2
- effective Ki of phagocytosis inhibition (THP-1 macrophages [3]; all particle sizes tested, micro to nano-meter beads (100 nm to 3.5 μm), listed as human CD47): ~20 molecules/μm^2
- effective Ki of phagocytosis inhibition (THP-1 macrophages [3]; approximately 2.1 μm beads, FIG. 6C): ≈ 20 molecules/μm^2
- Ki at high opsonin (THP-1 macrophages [3]; beads opsonized at saturating densities of IgG): 20 CD47/μm^2
- Ki (minimum hCD47 density to inhibit uptake) (THP-1 macrophages [3]; particle radius 1.1 μm): 20* molecules/μm^2
- Ki (minimum hCD47 density to inhibit uptake) (THP-1 macrophages [3]; particle radius 100 nm): 19.9 molecules/μm^2
- Ki (minimum hCD47 density to inhibit uptake) (THP-1 macrophages [3]; particle radius 160 nm): 13.6 molecules/μm^2
- fraction of normal CD47 densities sufficient to inhibit phagocytosis (THP-1 macrophages [3]; relative to normal human RBC density): 10-20%
- phagocytosis of beads bearing high densities of hCD47 [4]: similarly potent reduction in phagocytosis
- Ki (minimum hCD47 density to inhibit uptake) (THP-1 macrophages [5]): 27.6 molecules/μm^2
